# Measured values from patent publication US20240325396A1, “METHODS FOR TREATING CANCER” (Allarity Therapeutics, Inc., priority 2023, published 2024).
# Where two headings read alike, the source gives them in different places.
# Columns and labels:
# [1] = cited from earlier work
# [2] = Myelotoxicity, ovarian cancer patients pooled with 14 metastatic breast cancer patients; type: in vivo, human; details: BID + QD (N = 42)
# Method: Because myelotoxicity appeared to be a rare event for 2×-121, 14 patients with metastatic breast cancer that received 600 mg QD in a phase II trial were included in Table 10.
# [3] = tested on: BRCA1 mutant human triple negative breast cancer cell line MDA-MB-436; experiment: Cell proliferation assay, MDA-MB-436; details: MDA-MB-436, 192 h, read-out: IC50, inhibition of cell proliferation
# [4] = tested on: human acute myeloid leukemia MV-4-11-luc2/AcGFP cell line; experiment: Cell proliferation assay, MV-4-11-luc2/AcGFP; details: 144 h, read-out: IC50, inhibition of cell proliferation
# breast cancer = experiment: Phase 2 breast cancer study, response; type: in vivo, human; details: twelve subjects evaluable for response
# Excerpt: A breast cancer study was initiated in June 2018 and discontinued for futility after enrollment of 16 subjects. Twelve subjects were evaluable for response: Nine had PD and three subjects had SD.
# [5] = tested on: SR human B cell lymphoma cell line; experiment: Cell proliferation assay, SR; details: 192 h, read-out: IC50, inhibition of cell proliferation
# Advanced Solid Tumors = experiment: Phase 1 study E7449-E044-101, tumor response (RECIST 1.1); type: in vivo, human
# Method: The overall objective response rate (ORR; CR+PR) was 4.9% (n=2) with 1 subject each in the 600 mg (MTD) and 800 mg dose groups with a BOR of PR.
# [6] = tested on: human acute myeloid leukemia (AML) MV-4-11-luc2/AcGFP; experiment: AML MV-4-11-luc2/AcGFP survival model; type: in vivo
# [7] = tested on: PARP activity (PAR levels); experiment: Phase 1 study, PARP inhibition by change in PAR levels; type: in vivo, human
# [8] = Safety: Phase 1 study with preliminary Phase 2 metastatic breast cancer data; type: in vivo
# Method: Phototoxicity was in the Danish study primarily seen in 2 subjects treated during the hot summer period in 2018.
# Anemia was registered in only few subjects at doses of 400 mg and above 3/42 (7%) (all grade 2) and 4/42 had increased liver enzymes (grade 2: 1/42 (2.6%) and grade 3: 3/42 (7%)).
# Gastrointestinal side-effects were registered in some subjects: nausea 14/42 (33%), vomiting 7/42 (16%) and diarrhea 13/42 ([…]) all grade 1-2 apart from two cases of grade 3 diarrhea.
# [9] = Phase 2 advanced ovarian cancer study, adverse events and dose modifications; type: in vivo, human
# [10] = published Phase I trial (Plummer, Br J Cancer 2020); cited from earlier work
# [11] = Phase 1 study, pharmacokinetics in plasma and urine; type: in vivo, human
# Excerpt: Food intake vs fasting comparisons were made after administration of the Cycle 1 Day 7 dose (FIG. 2A) and after the Cycle 1 Day 15 dose (FIG. 2B).
# P-gp = experiment: in vitro; details: mouse
# [12] = tested on: BRCA1 mutant MDA-MB-436 human breast cancer subcutaneous xenograft; experiment: MDA-MB-436 subcutaneous xenograft model, anti-tumor activity; type: in vivo; details: 30 and 100 mg/kg
# advanced ovarian cancer = experiment: Phase 2 advanced ovarian cancer study QD vs BID, tumor response (RECIST 1.1), PFS; type: in vivo, human
# Excerpt: Patient population: Histologically or cytologically documented epithelial ovarian carcinoma including high-grade serous, endometrioid, clear cell, carcinosarcoma, undifferentiated, and mixed histological subtypes (independent of BRCA1 and homologous recombination (HR) deficiency (HRD) status) and with 2 or more previous chemotherapies/antibody therapies including treatment with other PARPi for advanced, refractory, or recurrent ovarian cancer.
# The Interim Analysis Population (IAP) and safety population consisted of 28 patients (10 BID and 18 QD). Five patients received a first dose but dropped out before any tumor evaluation.
# FIG. 4A and FIG. 4B show the best change in tumor diameter from baseline in the IAP QD population (FIG. 4A) and the IAP BID population (FIG. 4B). The mean of best change in tumor diameter from baseline in the QD population (FIG. 4A) was 4% tumor growth. The CR in the BID pollution (FIG. 4B) was unconfirmed, and consisted of target lymph node lesions that all turned normal. This CR patient also had CA125 CR unconfirmed status. The mean of best change in tumor diameter from baseline in the BID population (FIG. 4B) was 29% tumor reduction. The median PFS was not reached in the BID population, and was 50 days (1.6 months) in the QD population.
# CA125 = experiment: Phase 2 advanced ovarian cancer study, CA125 test response (GCIG); type: in vivo, human
# Method: Only patients with a baseline of CA125 twice the upper normal limit of 70 unit/ml who received at least one dose were included in IAP. Only patients who had completed 2 cycles were determined to be evaluable for CA125 response. Two QD patients and four BID patients were below 70 units/ml. The CA125 test was confirmed with a second measurement that was lower than or within 10% of the previous measurement.
compound,measurement,setting,value
NC(=O)c1cccc2cn(-c3ccc([C@@H]4CCCNC4)cc3)nc12 [niraparib],Adverse events Grade 5,"[1]; 300 mg QD (N = 463), QUADRA trial",2%
same,Dose modifications: Discontinuation,[1]; 300 mg QD (N = 463),21%
same,Dose modifications: Interruption,[1]; 300 mg QD (N = 463),62%
same,Dose modifications: Reduction,[1]; 300 mg QD (N = 463),47%
same,Treatment-related adverse events Grade 1,[1]; 300 mg QD (N = 463),90%
same,Treatment-related adverse events Grade 2,[1]; 300 mg QD (N = 463),56%
same,Treatment-related adverse events Grade 3,[1]; 300 mg QD (N = 463),20%
same,Treatment-related adverse events Grade 4,[1]; 300 mg QD (N = 463),<1%
same,Anemia Grade 1-4,[1]; QD (N = 463),51%
same,Anemia Grade 3-4,[1]; QD (N = 463),27%
same,Neutropenia Grade 1-4,[1]; QD (N = 463),20%
same,Neutropenia Grade 3-4,[1]; QD (N = 463),13%
same,Thrombocytopenia Grade 1-4,[1]; QD (N = 463),52%
same,Thrombocytopenia Grade 3-4,[1]; QD (N = 463),28%
"O=c1[nH]nc2c3c(cccc13)N=C(CN1Cc3ccccc3C1)N2 [stenoparib, 8-(isoindolin-2-ylmethyl)-2,9-dihydro-3H-pyridazino [3,4,5-de] quinazolin-3-one]",Anemia Grade 1-4,[2],21%
same,Anemia Grade 3-4,[2],7%
same,Neutropenia Grade 1-4,[2],2%
same,Neutropenia Grade 3-4,[2],0%
same,Thrombocytopenia Grade 1-4,[2],0%
same,Thrombocytopenia Grade 3-4,[2],0%
same,IC50,[3],219 nM
same,IC50,[4],1100 nM
same,subjects with PD,breast cancer,Nine
same,subjects with SD,breast cancer,three
same,IC50,[5],1060 nM
same,BOR of stable disease,Advanced Solid Tumors; 13 subjects,31.7%
same,subjects with best overall response (BOR) of CR,"Advanced Solid Tumors; 35 subjects assessed, investigator assessment, once daily dosing",None
same,overall objective response rate (ORR; CR+PR),"Advanced Solid Tumors; n=2, one PR each at 600 mg and 800 mg",4.9%
same,disease burden as measured by luciferase signal,[6]; 100 mg/kg,Reduced disease burden
same,survival benefit,[6]; 100 mg/kg for 28 days,statistically significant survival benefit
same,"tolerability, body weight loss","[6]; 10, 30 or 100 mg/kg",well-tolerated without any significant body weight loss
same,disease burden by luciferase signal and survival benefit,[6]; 10 and 30 mg/kg,No statistically significant reduction in disease burden by luciferase signal or survival benefit
same,inhibition in PAR levels from baseline,"[7]; 600 mg (MTD), food effect cohort, 2 to 4 hours post-dose",up to 90%
same,decrease in PAR levels,[7]; 24 hours post-dose,≥ 70%
same,MTD,"[8]; administered orally once daily, phase I study",600 mg
same,diarrhea,"[8]; human, in vivo",25%
same,nausea,"[8]; human, in vivo",33%
same,vomiting,"[8]; human, in vivo",16%
same,DLT,[8]; in vivo,limited to fatigue and one case of anaphylactic reaction
same,cases of grade 3 diarrhea,[8]; in vivo,two
same,hematotoxicity or hepatotoxicity,[8]; in vivo,no significant hematotoxicity or hepatotoxicity was observed
same,Dose modifications: Discontinuation,[9]; 600 mg BID (N = 9),0%
same,Dose modifications: Interruption,[9]; 600 mg BID (N = 9),50%
same,Dose modifications: Reduction,[9]; 600 mg BID (N = 9),40%
same,Adverse events Grade 1-4,[9]; 600 mg BID (N = 10),70%
same,Adverse events Grade 3-4,[9]; 600 mg BID (N = 10),20%
same,Adverse events Grade 5,[9]; 600 mg BID (N = 10),0%
same,Treatment-related adverse events Grade 1,[9]; 600 mg BID (N = 10),70%
same,Treatment-related adverse events Grade 2,[9]; 600 mg BID (N = 10),60%
same,Treatment-related adverse events Grade 3,[9]; 600 mg BID (N = 10),20%
same,Treatment-related adverse events Grade 4,[9]; 600 mg BID (N = 10),0%
same,Treatment-related adverse events Grade 5,[9]; 600 mg BID (N = 10),0%
same,Adverse events Grade 1-4,[9]; 600 mg QD (N = 18),100%
same,Adverse events Grade 3-4,[9]; 600 mg QD (N = 18),61%
same,Adverse events Grade 5,[9]; 600 mg QD (N = 18),6%
same,Dose modifications: Discontinuation,[9]; 600 mg QD (N = 18),11%
same,Dose modifications: Interruption,[9]; 600 mg QD (N = 18),83%
same,Dose modifications: Reduction,[9]; 600 mg QD (N = 18),28%
same,Treatment-related adverse events Grade 1,[9]; 600 mg QD (N = 18),94%
same,Treatment-related adverse events Grade 2,[9]; 600 mg QD (N = 18),83%
same,Treatment-related adverse events Grade 3,[9]; 600 mg QD (N = 18),33%
same,Treatment-related adverse events Grade 4,[9]; 600 mg QD (N = 18),0%
same,Treatment-related adverse events Grade 5,[9]; 600 mg QD (N = 18),0%
same,myelotoxicity among adverse events,[10],no myelotoxicity among adverse events found in more than 5% of patients
same,increase of AUC by food,"[11]; 600 mg dose, plasma",10%
same,reduction of Cmax by food,"[11]; 600 mg dose, plasma",60%
same,accumulation based on AUC,[11]; Day -2 vs Day 15 administration,minimal accumulation
same,Tmax,"[11]; human, plasma, across subjects and dose groups, oral",0.5 to 4 h
same,administered dose recovered in urine,[11]; in vivo,less than 1.5%
same,half-life,"[11]; plasma, human subjects, oral, read-out: elimination half-life (converted)",~8 h
same,dose proportionality of absorption in plasma,[11]; single or multiple oral doses between 50 mg and 800 mg,proportional absorption
same,IC50,P-gp,1390 nM
same,IC50,P-gp; with verapamil (P-gp antagonist; concentration not stated),1820 nM
same,PARP activity in tumor tissue,"PARP activity; single dose 30 mg/kg, 12 hours post-dose",low levels of PARP activity were observed
same,PARP activity in tumor tissue,"PARP activity; single dose 30 or 100 mg/kg, 1 and 6 hours post-dose",completely inhibited
same,PARP activity in tumor tissue,"PARP activity; single dose 30 or 100 mg/kg, 24 hours post-dose",restored to control levels
same,"tolerability, body weight loss",[12]; 28 days,no significant body weight loss
same,tumor growth inhibition,[12]; consecutive 28-day administration,statistically significant tumor growth inhibition
same,"Tumor response CR, patients n (%)","advanced ovarian cancer; 600 mg QD, N = 18 IAP",0 (0%)
same,"Tumor response PD, patients n (%)","advanced ovarian cancer; 600 mg QD, N = 18 IAP",9 (50%)
same,"Tumor response PR, patients n (%)","advanced ovarian cancer; 600 mg QD, N = 18 IAP",0 (0%)
same,"Tumor response SD > 16w, patients n (%)","advanced ovarian cancer; 600 mg QD, N = 18 IAP",1 (6%)
same,"Tumor response SD, patients n (%)","advanced ovarian cancer; 600 mg QD, N = 18 IAP",3 (17%)
same,"Tumor response CR, patients n (%)","advanced ovarian cancer; BID 200 mg morning + 400 mg evening, N = 10 IAP, unconfirmed",1 (10%) unconfirmed
same,"mean of best change in tumor diameter from baseline, tumor reduction",advanced ovarian cancer; BID population,29%
same,median PFS,advanced ovarian cancer; BID population,not reached
same,"Tumor response PD, patients n (%)","advanced ovarian cancer; BID, N = 10 IAP",0 (0%)
same,"Tumor response PR, patients n (%)","advanced ovarian cancer; BID, N = 10 IAP",0 (0%)
same,"Tumor response SD > 16w, patients n (%)","advanced ovarian cancer; BID, N = 10 IAP",1 (10%)
same,"Tumor response SD, patients n (%)","advanced ovarian cancer; BID, N = 10 IAP",3 (30%)
same,"mean of best change in tumor diameter from baseline, tumor growth",advanced ovarian cancer; QD population,4%
same,"CA125 response PR, patients n (%)","CA125; BID, N = 6 IAP",0 (0%)
same,"CA125 response SD, patients n (%)","CA125; BID, N = 6 IAP",1 (17%)
same,"CA125 response CR, patients n (%)","CA125; BID, N = 6 IAP, unconfirmed",1 (17%) unconfirmed
same,"CA125 response CR, patients n (%)","CA125; QD, N = 16 IAP",0 (0%)
same,"CA125 response PR, patients n (%)","CA125; QD, N = 16 IAP",0 (0%)
same,"CA125 response SD, patients n (%)","CA125; QD, N = 16 IAP",3 (19%)
